Reference: patent US20230000940A1, “Composition for prevention or treatment of Porcine epidemic diarrhea virus infection comprising curcuminoid and licorice extracts or fraction thereof” (KOREA RESEARCH INSTITUTE OF BIOSCIENCE AND BIOTECHNOLOGY, priority 2019, published 2023)

Experiments:
IL-8 = experiment: Inhibitory effect on IL-8 in PED coronavirus-infected Vero cells; type: cell-based; settings: 10 μM, vs virus-infected group
Experimental: To investigate the inhibitory effect of the complex on IL-8, which is a pro-inflammatory cytokine involved in promoting inflammation, virus infection was performed in the same manner as in Example 2-1, followed by treatment with the complex.

[1] = system: nucleoprotein (N protein) of the PED coronavirus; settings: 10 μM, vs virus-infected group
Experimental: To investigate the target protein expression inhibitory effect of the complex on the nucleoprotein (N protein) of the PED coronavirus, Vero cells were infected with 0.001 MOI of PED coronavirus for 1 hour.

IL-6 = experiment: Inhibitory effect on IL-6 in PED coronavirus-infected Vero cells; type: cell-based; settings: 10 μM, vs virus-infected group
Experimental: To investigate the inhibitory effect of the complex on IL-6, which is a pro-inflammatory cytokine involved in promoting inflammation, virus infection was performed in the same manner as in Example 2-1, followed by treatment with the complex.

TNF-α = experiment: Inhibitory effect on TNF-α in PED coronavirus-infected Vero cells; type: cell-based; settings: 10 μM, vs virus-infected group
Experimental: To investigate the inhibitory effect of the complex on TNF-α, which is a pro-inflammatory cytokine involved in promoting inflammation, virus infection was performed in the same manner as in Example 2-1, followed by treatment with the complex.

PED coronavirus = settings: component alone; statement without data; cited from earlier work

Row | SMILES | inhibitory effect on IL-8 (IL-8) | nucleoprotein synthesis inhibition (inhibitory effect) [1] | inhibitory effect on IL-6 (IL-6) | inhibitory effect on TNF-α (TNF-α) | inhibitory effect against PED coronavirus (PED coronavirus)
1 | O=c1cnn([C@@H]2O[C@H](CO)[C@@H](O)[C@H]2O)c(=O)[nH]1 [6-azauridine] | 25.4 fold | 6.8 fold | 5.8 fold | 3.8 fold | 
2 | COc1cc(/C=C/C(=O)/C=C(O)/C=C/c2ccc(O)c(OC)c2)ccc1O [curcumin] |  |  |  |  | no inhibitory effect
